Experimental data taken from patent US9957271B2, “Substituted bicyclic aza-heterocycles and analogues as sirtuin modulators” (GlaxoSmithKline, LLC, priority 2012, dated 2018).

Assays:
[1] = target: T1, SIRT1 (Homo sapiens, UniProt Q96EB6); experiment: TAMRA based mass spectrometry assay of SIRT1 activity; assay type: biochemical; conditions: for Emax: read-out: TAMRA % Fold Act
T1 sequence (Q96EB6 1-747): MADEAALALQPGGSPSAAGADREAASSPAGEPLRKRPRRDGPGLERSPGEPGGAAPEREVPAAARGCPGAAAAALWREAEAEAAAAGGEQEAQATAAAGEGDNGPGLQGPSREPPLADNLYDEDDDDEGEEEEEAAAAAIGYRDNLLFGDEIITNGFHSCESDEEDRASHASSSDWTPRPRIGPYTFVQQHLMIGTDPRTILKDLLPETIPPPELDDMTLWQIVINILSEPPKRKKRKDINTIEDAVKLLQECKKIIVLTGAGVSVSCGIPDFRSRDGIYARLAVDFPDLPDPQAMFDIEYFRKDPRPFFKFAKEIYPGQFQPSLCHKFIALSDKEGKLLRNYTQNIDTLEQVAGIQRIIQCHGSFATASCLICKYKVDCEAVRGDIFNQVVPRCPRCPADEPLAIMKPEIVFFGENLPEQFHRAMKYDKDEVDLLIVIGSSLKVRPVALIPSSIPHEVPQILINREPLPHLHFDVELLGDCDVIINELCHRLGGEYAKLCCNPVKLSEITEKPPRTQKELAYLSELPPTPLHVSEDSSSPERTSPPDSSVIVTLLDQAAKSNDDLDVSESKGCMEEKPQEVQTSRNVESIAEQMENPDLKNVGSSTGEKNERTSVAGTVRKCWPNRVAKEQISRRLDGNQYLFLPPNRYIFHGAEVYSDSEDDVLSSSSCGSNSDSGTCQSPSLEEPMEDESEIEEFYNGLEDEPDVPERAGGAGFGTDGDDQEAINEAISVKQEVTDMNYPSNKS
Summary of the method: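 Recombinant N-terminal His-tagged human SIRT1 (10 nM, E. coli) incubated 25 min at 25 °C with 0.5 μM 5TMR-labelled p53-derived acetyl-peptide and 120 μM βNAD+ in Tris-acetate pH 8 buffer with DTT and 0.05% BSA, compound at varying concentrations. Stopped with formic acid; deacetylated peptide or OAADPR measured by mass spectrometry relative to DMSO controls.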

[2] = target: T1, SIRT1; experiment: Trp mass spectrometry assay of SIRT1 activity; assay type: biochemical; conditions: for Emax: read-out: Trp % Fold Act
Summary of the method: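 His-tagged SIRT1 expressed in E. coli BL21(DE3), 10 nM, incubated 25 min at 25° C. with 0.5 μM Ac-RHKK(Ac)W-NH2 peptide and 120 μM βNAD+ in 50 mM HEPES pH 7.5, […], 1 mM DTT, 0.05% BSA; formic acid stop. OAADPR or deacetylated peptide measured by mass spectrometry; EC1.5 and percent maximum activation versus DMSO control.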

[3] = TAMRA peptide substrate, concentration giving 150% activation of SIRT1
[4] = TAMRA peptide substrate, percent maximum fold activation
[5] = Trp peptide substrate, concentration giving 150% activation of SIRT1
[6] = Trp peptide substrate, percent maximum fold activation
[7] = TAMRA assay, concentration giving 150% activation of SIRT1
[8] = TAMRA assay, percent maximum fold activation
[9] = Trp assay, concentration giving 150% activation of SIRT1
[10] = Trp assay, percent maximum fold activation
[11] = concentration of test compound giving 150% activation of SIRT1, TAMRA peptide substrate
[12] = percent maximum fold activation of SIRT1, TAMRA peptide substrate
[13] = concentration of test compound giving 150% activation of SIRT1, Trp peptide substrate
[14] = percent maximum fold activation of SIRT1, Trp peptide substrate

TAMRA EC1.5 [1, 3] | Emax [1, 4] [%] | Trp EC1.5 [2, 5] | Emax [2, 6] [%] | TAMRA EC1.5 (μM) [1, 7] | Emax [1, 8] [%] | Trp EC1.5 (μM) [2, 9] | Emax [2, 10] [%] | Structure (SMILES) | further results
A (EC1.5<1 μM) | ≥ 350 | B (EC1.5 1-25 μM) | < 350 | – | – | – | – | Cc1cnc(NC(=O)c2cnn3ccc(-c4ccccc4C(F)(F)F)nc23)s1 [Compound 507] | –
A (EC1.5<1 μM) | ≥ 350 | A (EC1.5<1 μM) | ≥ 350 | – | – | – | – | Cc1cc2ncc(NC(=O)c3cccc(OCC(O)CO)n3)n2nc1-c1ccccc1C(F)(F)F (stereo not shown) [Compound 449] | –
– | – | – | – | A (EC1.5<1 μM) | ≥ 350 | A (EC1.5<1 μM) | ≥ 350 | Cc1ccc(NC(=O)c2c(C)nn3ccc(-c4ccccc4C(F)(F)F)nc23)c(C)n1 [Compound 698] | –
B (EC1.5 1-25 μM) | < 350 | C (EC1.5>25 μM) | < 350 | – | – | – | – | Cc1nc2ccc(-c3ccccc3OC(F)(F)F)nn2c1C(=O)Nc1ccc(F)cn1 [Compound 472] | –
– | – | – | – | B (EC1.5 1-25 μM) | < 350 | C (EC1.5>25 μM) | < 350 | O=C(Nc1cnc2ccc(-c3ccccc3F)nn12)c1nccs1 [Compound 303] | –
– | – | – | – | – | – | – | – | O=C(Nc1ccnc(N2CCC2)c1)c1cnc2ccc(-c3cncc(C(F)F)c3)nn12 [Compound 62] | TAMRA EC1.5 (μM) [1, 11]: B (EC1.5 1-25 μM); Emax [1, 12]: < 350%; Trp EC1.5 (μM) [2, 13]: C (EC1.5>25 μM); Emax [2, 14]: < 350%
A (EC1.5<1 μM) | ≥ 350 | B (EC1.5 1-25 μM) | ≥ 350 | – | – | – | – | Cc1nc2ccc(-c3ccccc3C(F)(F)F)nn2c1C(=O)Nc1cnccn1 [Compound 463] | –
A (EC1.5<1 μM) | ≥ 350 | B (EC1.5 1-25 μM) | ≥ 350 | – | – | – | – | Cc1cc(-c2ccccc2C(F)(F)F)nn2c(NC(=O)c3ccccn3)cnc12 [Compound 407, N-(8-methyl-6-(2-(trifluoromethyl)phenyl)imidazo[1,2-b]pyridazin-3-yl)picolinamide] | –
– | – | – | – | – | – | – | – | CS(=O)(=O)c1ccccc1-c1ccc2ncc(C(=O)Nc3ccnc(N4CCC4)c3)n2n1 [Compound 186] | TAMRA EC1.5 (μM) [1, 11]: B (EC1.5 1-25 μM); Emax [1, 12]: < 350%; Trp EC1.5 (μM) [2, 13]: C (EC1.5>25 μM); Emax [2, 14]: < 350%
– | – | – | – | A (EC1.5<1 μM) | ≥ 350 | A (EC1.5<1 μM) | ≥ 350 | COCCOc1nccc(NC(=O)c2cnc3c(C)cc(-c4ccccc4C(F)(F)F)nn23)n1 [Compound 627] | –
B (EC1.5 1-25 μM) | ≥ 350 | B (EC1.5 1-25 μM) | < 350 | – | – | – | – | COc1cccc(C(=O)Nc2c(C)nc3c(C)cc(-c4ccccc4C(F)(F)F)nn23)n1 [Compound 589, N-(2,8-dimethyl-6-(2-(trifluoromethyl)phenyl)imidazo[1,2-b]pyridazin-3-yl)-6-methoxypicolinamide] | –
A (EC1.5<1 μM) | ≥ 350 | B (EC1.5 1-25 μM) | < 350 | – | – | – | – | Cc1cccc(NC(=O)c2c(C)nc3c(C)cc(-c4ccccc4OC(F)(F)F)nn23)n1 [Compound 480] | –
– | – | – | – | A (EC1.5<1 μM) | ≥ 350 | A (EC1.5<1 μM) | ≥ 350 | O=C(Nc1ccccn1)c1cnc2ccc(-c3ccccc3OC[C@H](O)CO)nn12 [Compound 812] | –
A (EC1.5<1 μM) | ≥ 350 | B (EC1.5 1-25 μM) | < 350 | – | – | – | – | O=C(Nc1cccnn1)c1cnn2ccc(-c3ccccc3C(F)(F)F)nc12 [Compound 505] | –
– | – | – | – | A (EC1.5<1 μM) | ≥ 350 | A (EC1.5<1 μM) | < 350 | O=C(Nc1cnc2ccc(-c3ccccc3Cl)nn12)c1cccc(OCC(O)CO)n1 (stereo not shown) [Compound 309] | –
– | – | – | – | A (EC1.5<1 μM) | ≥ 350 | B (EC1.5 1-25 μM) | < 350 | CC(C)c1csc(C(=O)Nc2cnn3ccc(-c4ccccc4C(F)(F)F)nc23)n1 [Compound 808] | –

TAMRA EC1.5 [1, 3] | Emax [1, 4] [%] | Trp EC1.5 [2, 5] | Emax [2, 6] [%] | TAMRA EC1.5 (μM) [1, 7] | Emax [1, 8] [%] | Trp EC1.5 (μM) [2, 9] | Emax [2, 10] [%] | Structure (SMILES) | further results
– | – | – | – | A (EC1.5<1 μM) | ≥ 350 | C (EC1.5>25 μM) | < 350 | O=C(Nc1cnn2ccc(-c3ccccc3C(F)(F)F)nc12)c1cc(O)ncn1 [Compound 830] | –
A (EC1.5<1 μM) | ≥ 350 | A (EC1.5<1 μM) | < 350 | – | – | – | – | COc1cccc(NC(=O)c2cnn3ccc(-c4ccccc4OC(F)(F)F)nc23)n1 [Compound 536] | –
– | – | – | – | A (EC1.5<1 μM) | ≥ 350 | B (EC1.5 1-25 μM) | ≥ 350 | Cc1nc(C(=O)Nc2cnc3ccc(-c4ccccc4C(F)(F)F)nn23)cs1 [Compound 273] | –
– | – | – | – | A (EC1.5<1 μM) | ≥ 350 | A (EC1.5<1 μM) | ≥ 350 | Cc1nc2ccc(-c3ccccc3OC[C@H](O)CO)nn2c1C(=O)Nc1ccccn1 [Compound 815, (R)-6-(2-(2,3-dihydroxypropoxy)phenyl)-2-methyl-N-(pyridin-2-yl)imidazo[1,2-b]pyridazine-3-carboxamide] | –
– | – | – | – | – | – | – | – | O=C(Nc1cccc(CN2CCOCC2)n1)c1cnc2ccc(-c3cccc(Cl)c3)nn12 [Compound 26] | TAMRA EC1.5 (μM) [1, 11]: A (EC1.5<1 μM); Emax [1, 12]: ≥ 350%; Trp EC1.5 (μM) [2, 13]: C (EC1.5>25 μM); Emax [2, 14]: < 350%
– | – | – | – | B (EC1.5 1-25 μM) | < 350 | A (EC1.5<1 μM) | ≥ 350 | Cc1ncccc1NC(=O)c1cnn2ccc(-c3ccccc3C(F)(F)F)nc12 [Compound 630] | –
C (EC1.5>25 μM) | < 350 | C (EC1.5>25 μM) | < 350 | – | – | – | – | Cc1nn2ccc(-c3ccccc3C(F)(F)F)nc2c1NC(=O)c1cccnc1 [Compound 568] | –
A (EC1.5<1 μM) | ≥ 350 | B (EC1.5 1-25 μM) | ≥ 350 | – | – | – | – | Cc1nn2ccc(-c3ccccc3C(F)(F)F)nc2c1C(=O)Nc1cccnc1 [Compound 549] | –
A (EC1.5<1 μM) | ≥ 350 | B (EC1.5 1-25 μM) | < 350 | – | – | – | – | Cc1nn2ccc(-c3ccccc3C(F)(F)F)nc2c1NC(=O)c1cccc(N2CCOCC2)n1 [Compound 574] | –
B (EC1.5 1-25 μM) | < 350 | B (EC1.5 1-25 μM) | ≥ 350 | – | – | – | – | O=C(Nc1ncccn1)c1cnn2ccc(-c3ccccc3OC(F)(F)F)nc12 [Compound 559] | –
– | – | – | – | – | – | – | – | O=C(Nc1cccnc1)c1cnc2ccc(-c3ccc(F)c(F)c3F)nn12 [Compound 131] | TAMRA EC1.5 (μM) [1, 11]: C (EC1.5>25 μM); Emax [1, 12]: < 350%; Trp EC1.5 (μM) [2, 13]: C (EC1.5>25 μM); Emax [2, 14]: < 350%
– | – | – | – | – | – | – | – | O=C(Nc1cccc(CN2CCOCC2)n1)c1cnc2ccc(-c3c(F)cccc3F)nn12 [Compound 172] | TAMRA EC1.5 (μM) [1, 11]: B (EC1.5 1-25 μM); Emax [1, 12]: ≥ 350%; Trp EC1.5 (μM) [2, 13]: C (EC1.5>25 μM); Emax [2, 14]: < 350%
– | – | – | – | A (EC1.5<1 μM) | < 350 | A (EC1.5<1 μM) | < 350 | Cc1cnc(NC(=O)c2c(C)nc3ccc(-c4cccc(OC[C@H](O)CO)c4)nn23)s1 [Compound 823] | –
A (EC1.5<1 μM) | ≥ 350 | A (EC1.5<1 μM) | ≥ 350 | – | – | – | – | Cc1nc2ccc(-c3ccccc3OC(F)(F)F)nn2c1C(=O)Nc1ccncc1F [Compound 466] | –
– | – | – | – | B (EC1.5 1-25 μM) | < 350 | A (EC1.5<1 μM) | ≥ 350 | Cc1cccnc1NC(=O)c1cnn2ccc(-c3ccccc3OC(F)(F)F)nc12 [Compound 701] | –
